Assay results: patent publication US5532167A, “Substrate specificity of protein kinases” (Beth Israel Hospital, priority 1994, dated 1996)
Where no end group is shown, it is not given here.

Experiments:
EGF receptor = target: T1, EGF receptor (Homo sapiens, UniProt P00533); assay: Kinetics of EGF receptor phosphorylating synthetic peptide; assay type: biochemical; conditions: peptide as substrate; 10 μM ATP, 10 mM MnCl2, pH 7.0
T1 construct: made in house
From the text: (§1) The degenerate peptide library constructed as described in Example 1, with either serine or tyrosine at the 7th position, was used as a substrate for several different protein kinases. Protein kinase A (bovine) was obtained commercially (Sigma). GST-cyclin B/p33^cdc2 (Atherton-Fessler et al. (1993) Mol. Cell. Biol. 13:1675-1685), GST-cyclinA/p33^CDK2 (Atherton-Fessler et al. (1993) Mol. Cell. Biol. 13:1675-1685), human EGF receptor, chicken pp60^v-src, polyoma virus middle T antigen/pp60^c-src (Piwnica-Worms et al. (1990) J. Virol. 64:61-68) and pp92^c-pfs/fes were expressed by baculoviruses. The baculovirus-expressed protein kinases were immobilized on protein A beads using precipitating antibodies or on glutathione-agarose bead for kinases obtained as GST fusion proteins to minimize the problem of separating the peptides from the enzyme or impurities in the enzyme. […]
(§2) The peptide sequences predicted to be optimal substrates for the cyclindependent serine/threonine kinases and for pp60^v-src tyrosine kinase were synthesized to determine whether they are indeed good substrates for these kinases. […] After 2 and a half minutes incubation, the supernatants were spotted on phosphocellulose paper (p81), washed four times with 75 mM phosphoric acid, and radioactivity counted on a scintillation counter. […] The Km and Vmax were calculated using the Kaleidagraph computer software.

cyclin A/p33^CDK2 = target: T2, cyclin A/p33^CDK2 (Homo sapiens, UniProt P24941); assay: Kinetics of cyclin A/p33CDK2 phosphorylating synthetic peptide; assay type: biochemical; conditions: peptide as substrate; 10 μM ATP, 10 mM MgCl2, pH 7.0
T2 construct: made in house
From the text: as §1, §2

PKA = PKA (Bos taurus, UniProt P00517); conditions: relative to Kemptide; cited from earlier work

## CC[C@H](C)[C@H](NC(=O)[C@H](CCC(=O)O)NC(=O)[C@H](CCC(=O)O)NC(=O)[C@H](CCC(=O)O)NC(=O)[C@H](C)N)C(=O)N[C@@H](Cc1ccc(O)cc1)C(=O)NCC(=O)N[C@@H](CCC(=O)O)C(=O)N[C@@H](Cc1ccccc1)C(=O)N[C@@H](CCC(=O)O)C(=O)N[C@@H](C)C(=O)N[C@@H](CCCCN)C(=O)N[C@@H](CCCCN)C(=O)N[C@@H](CCCCN)C(=O)N[C@@H](CCCCN)C(=O)O [AEEEIYGEFEAKKKK, Ala-Glu-Glu-Glu-Ile-Tyr-Gly-Glu-Phe-Glu-Ala-Lys-Lys-Lys-Lys]
EGF receptor
  Km: 34 µM

## ARRPMSPKKKA [ARRPMSPKKKA, Ala-Arg-Arg-Pro-Met-Ser-Pro-Lys-Lys-Lys-Ala]
Cyclin A/p33^CDK2
  Km: 15 µM

## Optimal peptide substrate based on fragment of Walsh inhibitor: known PKA peptide substrate, sequence G R T G R R N S I, from the literature (GRTGRRNSI)
PKA
  fold lower KM than Kemptide: 40 fold
